Here are results for five compounds from patent publication US11000033B2, “Ketone or oxime compound, and herbicide” (NISSAN CHEMICAL CORPORATION, priority 2014, dated 2021).

Holding throughout (assay type): in vivo
The test system of data set [1] is Monochoria vaginalis. Put plainly: Test Example 2: herbicidal activity, application during weed generation in submerged conditions (symbol C). The conditions noted are these: Table 23; application herbicide amount 320 g/ha; grade 0-5 by criteria of Test Example 1. Summed up:
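Seeds sown in flooded alluvial soil (4 cm water) were grown in a 25-30° C greenhouse. At the one- to two-leaf stage, diluted emulsion of compound was applied to the water surface at a predetermined rate. Effect was scored 3 weeks later.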

Data set [2] relates to Avena fatua. Nature of the data set: Test Example 4: herbicidal effect by soil treatment (symbol I). In outline:
(§1)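 Seeds were sown in sterilized diluvial soil, covered with about 1.5 cm of soil, and the soil surface was sprayed with a water-diluted emulsion of the compound at a predetermined rate. Plants grew in a greenhouse at 25° C. to 30° C.; effects were scored visually 3 weeks after application.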

Data set [3] relates to Abutilon theophrasti. Put plainly: Test Example 5: herbicidal effect by foliage application, plastic box (symbol M). As to conditions: 320 g/ha, 3 weeks after application. Summed up:
(§2)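 Effect is rated 3 weeks after a foliar spray of water-diluted emulsion concentrate at a predetermined herbicide amount. Plants had grown 14 days in a 25° C. to 30° C. greenhouse from seed in sterilized diluvial soil.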

Data set [4] relates to Monochoria vaginalis. Put plainly: Test Example 1: herbicidal activity, application before weed generation in submerged conditions (symbol C). As to conditions: application herbicide amount 320 g/ha. Summed up: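 Weeds are sown into submerged alluvial soil alongside transplanted 2.5-leaf rice, and the compound, as an emulsion diluted to a set rate, is applied onto the water before emergence. Rating on the 0–5 herbicidal-ratio scale follows 3 weeks of greenhouse growth at 25–30 °C.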

Data set [5] relates to soybean. Put plainly: Test Example 5: effect on crop by foliage application, plastic box (symbol d). As to conditions: 320 g/ha, 3 weeks after application. Summed up:
(§3)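 Crop and weed seeds sown in spots in sterilized diluvial soil in plastic boxes and covered with about 1.5 cm soil. Plants raised in a greenhouse at 25° C. to 30° C. for foliar application.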

Data set [6] deals with rapeseed. Put plainly: Test Example 5: effect on crop by foliage application, plastic box (symbol g). As to conditions: 320 g/ha, 3 weeks after application. Summed up:
as §3

The subject of data set [7] is Echinochloa crus-galli var. crus-galli. Put plainly: Test Example 5: herbicidal effect by foliage application, plastic box (symbol H). The conditions noted are these: 320 g/ha, 3 weeks after application. In outline: as §2
The test system of data set [8] is Veronica persica. Nature of the data set: Test Example 4: herbicidal effect by soil treatment (symbol R). In outline: as §1
Data set [9] relates to beet. Nature of the data set: Test Example 4: effect on crop by soil treatment (symbol f). The conditions noted are these: for f: beet, effect on crop grade: application herbicide amount 320 g/ha; for f: beet, effect grade on crop: 320 g/ha. Summed up:
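Crop seeds, among them rice, wheat, beet and rapeseed, were sown in sterilized diluvial soil and covered with about 1.5 cm of soil. Boxes were kept in a greenhouse at 25° C. to 30° C. for plant growth.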

The subject of data set [10] is Apera spica-venti. Put plainly: Test Example 5: herbicidal effect by foliage application, plastic box (symbol L). The conditions noted are these: 320 g/ha, 3 weeks after application. In outline: as §2
For data set [11], the system named is directly sowed rice plant. Put plainly: Test Example 3: effect on crop by foliage application, Wagner pot (symbol b). As to conditions: application herbicide amount 320 g/ha. In outline: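 Plants are raised from seed in flooded paddy conditions: water stands 0.1–0.5 cm over alluvial soil, and the pot is kept in a greenhouse at 25–30 °C. Species sown are barnyardgrass (E. crus-galli var. crus-galli), Leptochloa chinensis, Cyperus difformis and rice.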

For data set [12], the system named is Setaria viridis. Nature of the data set: Test Example 4: herbicidal effect by soil treatment (symbol G). In outline: as §1
Data set [13] concerns Chenopodium album. Nature of the data set: Test Example 4: herbicidal effect by soil treatment (symbol O). In outline:
as §1

For data set [14], the system named is corn. Nature of the data set: Test Example 5: effect on crop by foliage application, plastic box (symbol c). The conditions noted are these: 320 g/ha, 3 weeks after application. In outline: as §3
Setting [15] is: application herbicide amount 320 g/ha.

Regarding `CON=C(C)CC1CC(O)=C(c2c(C)cc(-c3ccc(C)cc3)cc2C)C1=O` (mixture of isomers) [6-018], the “Herbicidal effect grade, C: Monochoria vaginalis” value (“Herbicidal effect grade, C” below) was 3 (Herbicidal ratio of 40% or higher and lower than 70%) in [1]; 4 (Herbicidal ratio of 70% or higher and lower than 90%) in data set [4]. In addition, the “I: Avena fatua, herbicidal effect grade” value in [2] (setting [15]) is listed as 0 (Herbicidal ratio of 5% or lower (almost no effect)). Further, the “M: Abutilon theophrasti, herbicidal effect grade” value in data set [3] is reported as 0 (Herbicidal ratio of 5% or lower (almost no effect)). In addition, the “d: soybean, effect on crop grade” value in [5] was 3 (Herbicidal ratio of 40% or higher and lower than 70%). In data set [6], the “g: rapeseed, effect on crop grade” value was 3 (Herbicidal ratio of 40% or higher and lower than 70%). For the same compound, the “H: Echinochloa crus-galli var. crus-galli, herbicidal effect grade” value in [7] is given as 5 (Herbicidal ratio of 90% or more (almost completely withered)). Besides, the “R: Veronica persica, herbicidal effect grade” value (“R: Veronica persica” below) in data set [8] (setting [15]) is 0 (Herbicidal ratio of 5% or lower (almost no effect)). For the same compound, in data set [9], the “f: beet, effect on crop grade” value is recorded as 0 (Herbicidal ratio of 5% or lower (almost no effect)). Moreover, in [10], the “L: Apera spica-venti, herbicidal effect grade” value is recorded as 5 (Herbicidal ratio of 90% or more (almost completely withered)). Also, the “effect on crop b (directly sowed rice plant), grade 0-5” value (“effect on crop b” for short) in [11] is given as 5 (Herbicidal ratio of 90% or more (almost completely withered)). Moreover, the “G: Setaria viridis, herbicidal effect grade” value (shortened to “G: Setaria viridis”) in [12] (setting [15]) was 5 (Herbicidal ratio of 90% or more (almost completely withered)). The “O: Chenopodium album, herbicidal effect grade” value (from here on “O: Chenopodium album”) in data set [13] (setting [15]) is reported as 0 (Herbicidal ratio of 5% or lower (almost no effect)). For the same compound, in [14], the “c: corn, effect on crop grade” value is given as 5 (Herbicidal ratio of 90% or more (almost completely withered)).

For the compound `CON=C(C)CC1CC(O)=C(c2c(C)cc(-c3ccc(Cl)cc3)cc2C)C1=O` (mixture of isomers) [6-029], the “Herbicidal effect grade, C” value in data set [1] is 2 (Herbicidal ratio of 20% or higher and lower than 40%); in [4], 3 (Herbicidal ratio of 40% or higher and lower than 70%). In addition, the “I: Avena fatua, herbicidal effect grade” value in data set [2] (setting [15]) is 4 (Herbicidal ratio of 70% or higher and lower than 90%). Also, in data set [3], the “M: Abutilon theophrasti, herbicidal effect grade” value is 4 (Herbicidal ratio of 70% or higher and lower than 90%). The “d: soybean, effect on crop grade” value in [5] is 0 (Herbicidal ratio of 5% or lower (almost no effect)). The “g: rapeseed, effect on crop grade” value in data set [6] was 4 (Herbicidal ratio of 70% or higher and lower than 90%). Besides, the “H: Echinochloa crus-galli var. crus-galli, herbicidal effect grade” value in data set [7] was 5 (Herbicidal ratio of 90% or more (almost completely withered)). In addition, the “R: Veronica persica” value in data set [8] (setting [15]) is 4 (Herbicidal ratio of 70% or higher and lower than 90%). In addition, in data set [9], the “f: beet, effect on crop grade” value is reported as 0 (Herbicidal ratio of 5% or lower (almost no effect)). In [10], the “L: Apera spica-venti, herbicidal effect grade” value is recorded as 5 (Herbicidal ratio of 90% or more (almost completely withered)). Moreover, the “effect on crop b” value in data set [11] was 5 (Herbicidal ratio of 90% or more (almost completely withered)). For the same compound, the “G: Setaria viridis” value in [12] (setting [15]) was 5 (Herbicidal ratio of 90% or more (almost completely withered)). For the same compound, in data set [13] (setting [15]), the “O: Chenopodium album” value is 3 (Herbicidal ratio of 40% or higher and lower than 70%). Further, the “c: corn, effect on crop grade” value in [14] is listed as 5 (Herbicidal ratio of 90% or more (almost completely withered)).

With `CON=C(C)CC1CC(O)=C(c2c(C)cc(-c3cccc(Cl)c3)cc2C)C1=O` (mixture of isomers) [6-034], the “Herbicidal effect grade, C” value is 3 (Herbicidal ratio of 40% or higher and lower than 70%) in data set [1]; 4 (Herbicidal ratio of 70% or higher and lower than 90%) in data set [4]. For the same compound, in [2] (setting [15]), the “I: Avena fatua, herbicidal effect grade” value was 1 (Herbicidal ratio of 5% or higher and lower than 20%). Also, the “M: Abutilon theophrasti, herbicidal effect grade” value in data set [3] was 3 (Herbicidal ratio of 40% or higher and lower than 70%). Further, the “d: soybean, effect on crop grade” value in data set [5] is reported as 0 (Herbicidal ratio of 5% or lower (almost no effect)). The “g: rapeseed, effect on crop grade” value in data set [6] is 4 (Herbicidal ratio of 70% or higher and lower than 90%). In addition, the “H: Echinochloa crus-galli var. crus-galli, herbicidal effect grade” value in [7] was 5 (Herbicidal ratio of 90% or more (almost completely withered)). The “R: Veronica persica” value in data set [8] (setting [15]) is 4 (Herbicidal ratio of 70% or higher and lower than 90%). In addition, in data set [9], the “f: beet, effect on crop grade” value is 0 (Herbicidal ratio of 5% or lower (almost no effect)). Further, in data set [10], the “L: Apera spica-venti, herbicidal effect grade” value is 5 (Herbicidal ratio of 90% or more (almost completely withered)). Besides, the “effect on crop b” value in [11] was 5 (Herbicidal ratio of 90% or more (almost completely withered)). For the same compound, the “G: Setaria viridis” value in data set [12] (setting [15]) is 5 (Herbicidal ratio of 90% or more (almost completely withered)). In addition, the “O: Chenopodium album” value in [13] (setting [15]) was 0 (Herbicidal ratio of 5% or lower (almost no effect)). For the same compound, the “c: corn, effect on crop grade” value in data set [14] was 5 (Herbicidal ratio of 90% or more (almost completely withered)).

As for `CON=C(C)CC1CC(OS(=O)(=O)CC[Si](C)(C)C)=C(c2c(C)cc(C)cc2C)C1=O` (stereo not shown) [1-144], the “Herbicidal effect grade, C” value is 2 (Herbicidal ratio of 20% or higher and lower than 40%) in data set [1]; 3 (Herbicidal ratio of 40% or higher and lower than 70%) in data set [4]. Also, the “I: Avena fatua, herbicidal effect grade” value in [2] (320 g/ha) was 2 (Herbicidal ratio of 20% or higher and lower than 40%). Also, the “M: Abutilon theophrasti, herbicidal effect (criteria 0-5)” value in data set [3] was 4 (Herbicidal ratio of 70% or higher and lower than 90%). The “d: soybean, effect on crop (criteria 0-5)” value in [5] is 3 (Herbicidal ratio of 40% or higher and lower than 70%). In addition, the “g: rapeseed, effect on crop (criteria 0-5)” value in [6] was 4 (Herbicidal ratio of 70% or higher and lower than 90%). Moreover, in data set [7], the “H: Echinochloa crus-galli var. crus-galli, herbicidal effect (criteria 0-5)” value is listed as 5 (Herbicidal ratio of 90% or more (almost completely withered)). For the same compound, in data set [8] (320 g/ha), the “R: Veronica persica” value is listed as 0 (Herbicidal ratio of 5% or lower (almost no effect)). For the same compound, the “f: beet, effect grade on crop” value in data set [9] is recorded as 0 (Herbicidal ratio of 5% or lower (almost no effect)). Moreover, the “L: Apera spica-venti, herbicidal effect (criteria 0-5)” value in [10] was 5 (Herbicidal ratio of 90% or more (almost completely withered)). Moreover, the “effect on crop b” value in data set [11] is given as 5 (Herbicidal ratio of 90% or more (almost completely withered)). In addition, the “G: Setaria viridis” value in data set [12] (320 g/ha) is on record as 5 (Herbicidal ratio of 90% or more (almost completely withered)). In data set [13] (320 g/ha), the “O: Chenopodium album” value was 0 (Herbicidal ratio of 5% or lower (almost no effect)). The “c: corn, effect on crop (criteria 0-5)” value in data set [14] was 5 (Herbicidal ratio of 90% or more (almost completely withered)).

Consider `CON=C(C)CC1CC(OC(=O)OCc2ccccc2)=C(c2c(C)cc(C)cc2C)C1=O` (stereo not shown) [1-145], for which the “Herbicidal effect grade, C” value in data set [1] was 3 (Herbicidal ratio of 40% or higher and lower than 70%); in [4], 1 (Herbicidal ratio of 5% or higher and lower than 20%). For the same compound, in data set [2] (320 g/ha), the “I: Avena fatua, herbicidal effect grade” value was 4 (Herbicidal ratio of 70% or higher and lower than 90%). For the same compound, the “M: Abutilon theophrasti, herbicidal effect (criteria 0-5)” value in data set [3] was 3 (Herbicidal ratio of 40% or higher and lower than 70%). Also, the “d: soybean, effect on crop (criteria 0-5)” value in data set [5] was 2 (Herbicidal ratio of 20% or higher and lower than 40%). Further, the “g: rapeseed, effect on crop (criteria 0-5)” value in [6] was 4 (Herbicidal ratio of 70% or higher and lower than 90%). Also, the “H: Echinochloa crus-galli var. crus-galli, herbicidal effect (criteria 0-5)” value in [7] is on record as 5 (Herbicidal ratio of 90% or more (almost completely withered)). Further, the “R: Veronica persica” value in [8] (320 g/ha) was 3 (Herbicidal ratio of 40% or higher and lower than 70%). The “f: beet, effect grade on crop” value in data set [9] is 0 (Herbicidal ratio of 5% or lower (almost no effect)). In data set [10], the “L: Apera spica-venti, herbicidal effect (criteria 0-5)” value was 5 (Herbicidal ratio of 90% or more (almost completely withered)). The “effect on crop b” value in data set [11] is reported as 5 (Herbicidal ratio of 90% or more (almost completely withered)). The “G: Setaria viridis” value in data set [12] (320 g/ha) is 5 (Herbicidal ratio of 90% or more (almost completely withered)). In addition, the “O: Chenopodium album” value in data set [13] (320 g/ha) is listed as 0 (Herbicidal ratio of 5% or lower (almost no effect)). Moreover, the “c: corn, effect on crop (criteria 0-5)” value in data set [14] is 5 (Herbicidal ratio of 90% or more (almost completely withered)).
